{
  "source": "paper PMC12613816",
  "about": "“Discovery of Novel Isoxazole-Based Small-Molecule Toll-Like Receptor 8 Antagonists” (Journal of Medicinal Chemistry, 2025)",
  "key": {"TLR8 F495L mutation": {"molecular_target": "T1, TLR8 F495L mutation (Homo sapiens, UniProt Q9NR97, F495L)", "T1 construct": "host or cells: HEK-Blue Null1 cells, transient transfection with PEI Max", "T1 sequence (Q9NR97 1-1059 isoform Q9NR97-2 F513L)": "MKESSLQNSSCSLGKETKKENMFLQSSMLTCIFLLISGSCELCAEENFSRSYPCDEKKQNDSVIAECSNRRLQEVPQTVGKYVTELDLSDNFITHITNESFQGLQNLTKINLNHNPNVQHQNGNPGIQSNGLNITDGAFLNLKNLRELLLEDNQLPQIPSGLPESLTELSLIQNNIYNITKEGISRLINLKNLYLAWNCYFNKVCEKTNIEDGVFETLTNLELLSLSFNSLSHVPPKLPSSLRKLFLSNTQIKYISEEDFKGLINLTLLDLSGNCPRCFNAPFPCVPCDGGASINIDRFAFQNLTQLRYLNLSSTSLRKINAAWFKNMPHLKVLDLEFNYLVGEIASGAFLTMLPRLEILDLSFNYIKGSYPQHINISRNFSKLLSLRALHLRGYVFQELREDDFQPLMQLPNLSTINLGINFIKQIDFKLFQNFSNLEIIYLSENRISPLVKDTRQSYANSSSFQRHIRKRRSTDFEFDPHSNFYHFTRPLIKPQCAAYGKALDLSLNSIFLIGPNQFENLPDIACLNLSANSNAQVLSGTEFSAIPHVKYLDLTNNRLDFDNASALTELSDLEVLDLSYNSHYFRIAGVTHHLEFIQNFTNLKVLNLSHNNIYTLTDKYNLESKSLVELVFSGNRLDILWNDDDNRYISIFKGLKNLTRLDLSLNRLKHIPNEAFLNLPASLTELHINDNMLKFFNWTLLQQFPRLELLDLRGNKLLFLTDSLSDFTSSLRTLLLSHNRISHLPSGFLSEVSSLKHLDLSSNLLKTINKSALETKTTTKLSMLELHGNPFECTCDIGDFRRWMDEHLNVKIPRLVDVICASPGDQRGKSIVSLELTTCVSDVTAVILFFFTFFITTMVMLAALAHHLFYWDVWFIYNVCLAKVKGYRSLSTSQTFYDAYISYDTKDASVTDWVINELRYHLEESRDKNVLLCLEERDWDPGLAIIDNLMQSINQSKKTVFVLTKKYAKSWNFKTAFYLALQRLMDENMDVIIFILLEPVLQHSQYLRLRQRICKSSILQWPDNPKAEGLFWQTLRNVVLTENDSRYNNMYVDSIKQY", "assay": "NF-κB SEAP reporter in HEK293 reporter control cells transfected with TLR8 F495L mutant plasmid", "type": "cell-based", "details": "compound 10 2 μM, Enpatoran 1 μM; TL8-506 3 μM or CL075 4 μM, 24 h"}, "TLR8 [1]": {"molecular_target": "T2, TLR8 (Homo sapiens, UniProt Q9NR97)", "T2 sequence (Q9NR97 27-1041)": "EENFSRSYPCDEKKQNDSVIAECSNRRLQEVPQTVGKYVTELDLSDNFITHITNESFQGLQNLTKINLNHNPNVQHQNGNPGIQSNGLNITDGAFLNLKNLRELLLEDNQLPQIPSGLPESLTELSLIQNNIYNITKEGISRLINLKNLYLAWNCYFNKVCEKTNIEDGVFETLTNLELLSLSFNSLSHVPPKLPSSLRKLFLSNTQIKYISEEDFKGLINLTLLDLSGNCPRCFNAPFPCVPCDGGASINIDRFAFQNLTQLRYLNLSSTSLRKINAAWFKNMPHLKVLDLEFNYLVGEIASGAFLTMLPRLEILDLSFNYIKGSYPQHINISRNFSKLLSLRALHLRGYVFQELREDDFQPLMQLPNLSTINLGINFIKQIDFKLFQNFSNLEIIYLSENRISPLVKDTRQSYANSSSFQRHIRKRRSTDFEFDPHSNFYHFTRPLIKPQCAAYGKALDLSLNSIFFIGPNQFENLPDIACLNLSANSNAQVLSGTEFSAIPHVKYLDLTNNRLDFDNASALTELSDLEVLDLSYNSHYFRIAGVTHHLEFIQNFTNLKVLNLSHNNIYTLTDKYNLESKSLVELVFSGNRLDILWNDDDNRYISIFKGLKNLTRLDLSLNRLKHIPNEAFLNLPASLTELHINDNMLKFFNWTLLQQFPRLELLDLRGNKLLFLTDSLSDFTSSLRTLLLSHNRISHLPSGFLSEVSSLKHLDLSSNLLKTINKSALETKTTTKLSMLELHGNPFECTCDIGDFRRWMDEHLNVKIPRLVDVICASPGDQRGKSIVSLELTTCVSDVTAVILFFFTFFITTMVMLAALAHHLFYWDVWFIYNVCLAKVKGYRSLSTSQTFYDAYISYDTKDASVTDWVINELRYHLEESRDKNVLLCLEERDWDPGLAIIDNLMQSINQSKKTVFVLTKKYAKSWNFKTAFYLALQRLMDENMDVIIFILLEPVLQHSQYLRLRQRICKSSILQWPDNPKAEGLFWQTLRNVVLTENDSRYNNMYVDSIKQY", "assay": "Inhibition of TL8-506-stimulated NF-κB activity (SEAP reporter, QuantiBlue) in hTLR8-HEK293 reporter cells", "type": "cell-based", "design": "host or cells: HEK293 (HEK-Blue hTLR8)", "details": "TL8-506 (0.6 μM) 24 h"}, "hTLR7": {"molecular_target": "T3, hTLR7 (Homo sapiens, UniProt Q9NYK1)", "T3 construct": "host or cells: HEK293 (HEK-Blue hTLR7)", "T3 sequence (Q9NYK1 27-1049)": "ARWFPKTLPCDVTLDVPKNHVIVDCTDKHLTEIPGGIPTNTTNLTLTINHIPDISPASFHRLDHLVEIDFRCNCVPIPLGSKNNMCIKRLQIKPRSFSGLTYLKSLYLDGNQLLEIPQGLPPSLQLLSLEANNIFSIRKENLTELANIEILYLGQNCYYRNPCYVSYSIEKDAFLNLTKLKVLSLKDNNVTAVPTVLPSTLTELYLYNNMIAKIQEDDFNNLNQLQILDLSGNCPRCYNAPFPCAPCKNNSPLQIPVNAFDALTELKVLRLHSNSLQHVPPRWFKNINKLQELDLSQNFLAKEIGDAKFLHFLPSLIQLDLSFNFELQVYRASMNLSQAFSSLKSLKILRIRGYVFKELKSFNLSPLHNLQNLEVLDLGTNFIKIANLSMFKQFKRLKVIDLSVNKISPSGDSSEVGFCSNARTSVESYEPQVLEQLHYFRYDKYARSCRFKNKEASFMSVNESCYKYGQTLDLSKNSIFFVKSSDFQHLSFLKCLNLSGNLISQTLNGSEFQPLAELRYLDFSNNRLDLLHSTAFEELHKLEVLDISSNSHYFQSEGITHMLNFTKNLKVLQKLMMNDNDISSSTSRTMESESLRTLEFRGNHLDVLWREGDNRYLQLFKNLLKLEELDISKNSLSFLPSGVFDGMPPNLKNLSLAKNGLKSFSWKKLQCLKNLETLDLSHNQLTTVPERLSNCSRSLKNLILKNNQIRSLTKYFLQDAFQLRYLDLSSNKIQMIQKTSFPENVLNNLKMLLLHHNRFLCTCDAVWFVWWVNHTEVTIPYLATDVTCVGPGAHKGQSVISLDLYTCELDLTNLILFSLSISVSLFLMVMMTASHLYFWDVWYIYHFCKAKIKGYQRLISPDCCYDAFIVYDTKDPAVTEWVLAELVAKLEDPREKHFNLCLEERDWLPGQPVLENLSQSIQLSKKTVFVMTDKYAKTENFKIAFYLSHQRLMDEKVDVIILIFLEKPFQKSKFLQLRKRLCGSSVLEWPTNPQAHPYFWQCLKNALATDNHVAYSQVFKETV", "assay": "Inhibition of CL307-stimulated NF-κB activity (SEAP reporter) in hTLR7-HEK293 reporter cells", "type": "cell-based", "details": "read-out: IC50 [μM] (95% CI) hTLR7-HEK293; inhibition of NF-κB activity; 1 h preincubation, CL307 (1.7 µM) 24 h", "source_text": "For stimulation experiments, cells were washed with phosphate-buffered saline (PBS, Sigma-Aldrich) and media was replaced with OptiMEM (Thermo Fisher Scientific, Darmstadt, Germany). […] The following TLR ligands were used: Pam2CSK4, Pam3CSK4, poly(I:C) (HMW), LPS from Escherichia coli O111:B4 (LPS-EB Ultrapure), flagellin from Bacillus subtilis (flagellin-BS Ultrapure), CL307, CL075, R848, TL8-506, ODN2006 (all from InvivoGen, Toulouse, France), and Enpatoran (BIOZOL Diagnostika, Germany)."}, "TLR8 [2]": {"molecular_target": "T2, TLR8", "assay": "Inhibition of TL8-506-stimulated TNF release (ELISA) in PBMCs", "details": "read-out: IC50 [μM] (95% CI) TNF release PBMCs, 1 h preincubation, TL8-506 (0.6 μM) 4 h", "quoted_text": "For the calculation of concentration–response curves, nonlinear regression with variable slope (four parameters) was used. Mean ± SEM (n = 3).\nPMBCs were washed three times with PBS containing ETDA and afterward seeded in 24-well plates (5 × 10^6 cells/well)."}},
  "data": [
    {"smiles": "N#Cc1ccc(N2C[C@H](N)C[C@H](C(F)(F)F)C2)c2cccnc12", "note": "[Enpatoran, reference compound]", "values": [
      {"measurement": "TLR8 activation in F495L mutation, triggered by CL075 and TL8-506", "setting": "TLR8 F495L mutation", "value": "reduced"},
      {"measurement": "inhibition at 10 µM", "setting": "TLR8 [1]; read-out: % inhibition at 10 µM ± SEM (NF-κB activity), 10 µM compound, hTLR8-HEK293", "value": 100, "unit": "%"},
      {"measurement": "IC50", "setting": "TLR8 [1]; read-out: IC50 [μM] (95% CI) hTLR8-HEK293, inhibition of NF-κB activity, 1 h preincubation", "value": 0.285, "unit": "µM"},
      {"measurement": "IC50", "setting": "hTLR7", "value": "≤ 0.05", "unit": "µM"},
      {"measurement": "IC50", "setting": "TLR8 [2]", "value": 0.074, "unit": "µM"}
    ]}
  ]
}
